Test results from patent publication US10093563B2, “Method for making chelating base product used in water-based systems” (Earth Science Laboratories, priority 2015, dated 2018).

Test system: Cotton plants (Gossypium hirsutum L.)
Assay: foliar zinc micronutrient delivery to cotton plants
Assay type: in vivo
Settings: for Carotenoids / Chlorophylls / Electron Transport Rate / Membrane Leakage: cotton leaf
Excerpt: An illustrative example of micronutrient delivery is the delivery of zinc (Zn) complexed to the chelant detailed herein to growing plants via foliar application. In this example, the experiment design was a Randomized Complete Design of 4 treatments of 10 replications for each of five parameters: (1) total chlorophyll by measuring fluorescence, (2) total carotenoids by measuring absorbance following organic solvent extraction, (3) electron transport rate by measuring light absorption and fluorometry, (4) membrane leakage by measuring change in electrolyte concentrations, and (5) leaf tissue concentrations of zinc by digesting samples in nitric acid followed by atomic absorption spectrophotometry. Leaf samples were collected at weekly intervals after squaring. Cotton plants (Gossypium hirsutum L.) were grown in a climate controlled chamber on a 14/10 hour, 30/20° C. diurnal cycle, respectively. Individual plants were grown in 48, 3 liter pots containing nutrient deficient potting soil. Plants received identical treatment for nutrition and growth management until squaring. At squaring, the first round of measurements were made and treatments sprayed via a CO2 backpack sprayer with plants arranged in rows. Sprays were allowed to dry before returning to the climate controlled chamber to minimize cross contamination of treatments due to foliar contact. Plants were then grown for an additional two to three weeks with nutrients being supplied via zinc-free Hoagland's solution without added Zn for treatments: ESL-Zn (base product fluid solution), Zinc Sulfate, and Low Zinc. The elemental composition of Hoagland's solution is as follows: N 210 mg/L, K 235 mg/L, Ca 200 mg/L, P 31 mg/L, S 64 mg/L, Mg 48 mg/L, B 0.5 mg/L, Fe 1 to 5 mg/L, Mn 0.5 mg/L, Zn 0.05 mg/L, Cu 0.02 mg/L, and Mo 0.01 mg/L. The four treatments and descriptions were (1) “Control” (no foliar spray addition of Zn), (2) “Low Zn” (No foliar spray addition and the Zn concentration of the Hoagland's solution was reduced to 0.025 mg/L, (3) “ZnSO4” (Foliar spray equivalent of 1% solution [e.g., 8 lbs. of 36% ZnSO4 in 100 gallons H2O] at 15 gallons/acre, and (4) “ESL-Zn” (Foliar spray equivalent of 1% solution [e.g., 8 lbs. of 36% ZnSO4 in 100 gallons H2O] at 15 gallons/acre).

[1] = week 1 (at squaring, measured before foliar spray)
[2] = week 2, foliar spray equivalent of 1% solution at 15 gallons/acre
[3] = week 3, foliar spray equivalent of 1% solution at 15 gallons/acre

`O=S(=O)([O-])[O-].[Zn+2]` [ZnSO4, Zinc Sulfate] was tested, and the Carotenoids [1] was 1.713 μg carotenoids/mg dry weight, the Chlorophylls [1] was 11.88 μg pigments/mg dry weight and the “Electron Transport Rate” value [1] was 71 μmol electrons m^−2 s^−. The “Membrane Leakage” value [1] was 34.68%, the Carotenoids [2] was 2.322 μg carotenoids/mg dry weight and the Chlorophylls [2] was 12.67 μg pigments/mg dry weight. The “Electron Transport Rate” value [2] was 70 μmol electrons m^−2 s^−, the “Membrane Leakage” value [2] was 28.12% and the Carotenoids [3] was 1.559 μg carotenoids/mg dry weight. The Chlorophylls [3] was 10.72 μg pigments/mg dry weight, the “Electron Transport Rate” value [3] was 68 μmol electrons m^−2 s^− and the “Membrane Leakage” value [3] was 27.06%. For the same compound, the “Zn (leaf tissue concentration)” value [1] was 27.46 ppm or mg/L, the “Zn (leaf tissue concentration)” value [2] was 61.29 ppm or mg/L and the “Zn (leaf tissue concentration)” value [3] was 27.52 ppm or mg/L.
